Measurements: patent publication US20130183719A1, “METHOD FOR PRODUCING VIRUS VECTOR” (priority 2010, published 2013)

Legend:
[1] = tested on: retrovirus vector; experiment: RNA copy number in retrovirus supernatant (Retrovirus Titer Set, real time PCR); conditions: Example 9; FIG. 9
Procedure: (§1) A working cell bank (WCB) prepared from the cloned cell obtained in Example 7-1 was thawed in a water bath at 37° C. The cell solution thus thawed was put into a 15 mL centrifuging tube. After addition of a complete medium [a DMEM medium (manufactured by Gibco) containing 10% fetal bovine serum (10% FBS, manufactured by SAFC Biosciences)], the tube was subjected to centrifugation (500×g, 5 minutes, 20° C.). After the centrifugation, a supernatant was removed, and the cells were suspended in 10 mL of the complete medium and then counted. After cell counting, the cell suspension was adjusted with the complete medium to 78.5×10^4 cells/mL. To a 100 mm dish for cell culture (manufactured by IWAKI) were added 1 mL of the cell suspension and 14.7 mL of the complete medium. The cell culture was carried out in a CO2 incubator (37° C., 95% of humidity, 5% CO2). The cell was subcultured at intervals of 3 days. […]
The RNA copy number was determined using Retrovirus Titer Set (for Real Time PCR) (manufactured by TAKARA BIO INC.) according to a standard method described in the directions for use attached to the product.
The retrovirus producer cell as described in Example 7-1 was used to prepare virus supernatants. […] However, virus supernatants collected over 3 days were mixed and evaluated in this Example, whereas virus supernatants were collected over 4 days in Example 2-1.

[2] = tested on: PBMC; experiment: Gene transduction of PBMC with MS-MA24-siTCR retrovirus supernatants from producer cells cultured in the test media (CD8/MAGE-A4 tetramer flow cytometry); assay type: cell-based, human; conditions: Example 9; FIG. 8
From the text: A HEK 293 T cell (ATCC CRL-11268) was transfected with the codon modified TCR and siRNA-coexpression retroviral vector (MS-MA24-siTCR) described in WO 2008/153029 using Retrovirus Packaging Kit Eco (manufactured by TAKARA BIO INC.) according to the manufacturer's protocol to obtain an ecotropic retrovirus supernatant. The virus supernatant was filtered with a 0.45 μm filter (Milex HV, manufactured by Millipore). A PG13 cell was infected with the filtrate by a method using polybrene, and then cloned by a limiting dilution method.
as §1, with “CO2).” for “CO2). The cell was subcultured at intervals of 3 days.”

CC(/C=C/C(=O)NO)=C\[C@@H](C)C(=O)c1ccc(N(C)C)cc1 [TSA, trichostatin A]
RNA copy number, TSA 500 nM compared with 50 nM [1]: more effective
gene transduction efficiency, TSA 500 nM compared with 50 nM [2]: more effective
